Results taken from US20140134735A1, “Plant Cell Differentiation Promoter” (SHISEIDO COMPANY, LTD., priority 2011, published 2014).

Assays:
[1] = system: Spathiphyllum embryogenic calluses; test: Effect of KODA treatment time on differentiation from Spathiphyllum callus to adventitious embryo and germinants; type: cell-based; conditions: for Dehydrated adventitious embryo weight per flask: embryos recovered 6 weeks after planting in differentiation medium
Method: Cultured seedlings subcultured under conditions of 25° C. in a dark location (photosynthetic photon flux density: 5.7 μmole/m^2/sec, day length: 16 hours) in a solid medium obtained by adding 3% sucrose and 0.8% agar (Wako Pure Chemical Industries, Tokyo, Japan) to MS (Murashige and Skoog) medium placed in a flat box (internal volume: 300 ml) manufactured by Asahi Techno Glass followed by adjusting the pH to 5.8 were used as cultured Spathiphyllum seedlings (variety: Double Take).
Sucrose (3%), 2,4-dichlorophenoxyacetic acid (4 ppm), benzyladenine (BA) (0.2 ppm), casein acid hydrolysate (100 ppm) and 5 mM 2-morpholinoethanesulfonic acid monohydrate (MES) were added to MS medium solidified with 0.8% agar to obtain a medium for callus induction and growth (to be referred to as “subculture medium”, pH 5.8). Leaf sheaths were collected from the cultured seedlings during week 4 of subculturing by peeling from the stump and using a roughly 2 cm section containing the peeled portion (leaf sheath base) as an explant. The explants were then planted in a flat box containing the subculture medium (50 ml). When the seedlings were cultured for 8 weeks in a dark location at 25° C., calluses were induced at the peeled portions of the planted seedlings. Embryogenic calluses were selected by subculturing these calluses in 0.2 g/container each of subculture medium and culturing for 1 month. The embryogenic calluses were able to be maintained for 2 years while retaining adventitious embryo induction potency by subculturing to the subculture medium every 4 weeks.
0.05 g aliquots of the embryonic calluses were planted in 500 ml Erlenmeyer flasks containing 160 ml of MS liquid medium containing sucrose (1%), fructose (1.1%), BA (0.1 ppm) and MES (5 mM) (pH 5.8, to be referred to as “differentiation medium”), followed by shake culturing (80 rpm) for 6 weeks at 25° C. in a dark location (day length: 16 hours, synthetic photon flux density: 22.8 μmole/m^2/sec) to obtain adventitious embryos. 0.2 g aliquots of these adventitious embryos were implanted in MS medium containing sucrose (3%) and obtained by solidifying with agar (0.8%) (pH 5.8, to be referred to as “germination medium”) followed by culturing for 8 weeks at 25° C. in a dark location (day length: 16 hours, photosynthetic photon flux density: 5.7 μmole/m^2/sec) to cause the adventitious embryos to germinate and obtain complete plants.
Embryogenic calluses subcultured in subculture medium were subcultured in fresh subculture medium followed by dropping a 3 ppm aqueous solution of KODA onto the calluses after 1 week (7 days), 2 weeks (14 days) or 3 weeks ([…]). The cultured calluses were planted in liquid differentiation medium 3 weeks after the start of subculturing, and the differentiated adventitious embryos were recovered 6 weeks later (FIG. 1), dehydrated and weighed after dehydrating. The adventitious embryos were then planted in germination medium and the numbers of resulting germinants were counted. The number of germinants per 1 g of dehydrated adventitious embryos was calculated from the measurement results (FIG. 2). […] The effect of KODA on inducing adventitious embryos in calluses was therefore thought to be specific to the time at which it is applied.

[2] = system: Spathiphyllum embryogenic calluses; test: Effect of KODA concentration on differentiation from Spathiphyllum callus to normally regenerated plant bodies; type: cell-based; conditions: 0.03, 0.3 or 3 ppm KODA dropped onto calluses; 8 weeks
Text: Embryogenic calluses subcultured in subculture medium were planted in fresh differentiation medium followed by dropping a 0.03 ppm, 0.3 ppm or 3 ppm aqueous solution of KODA onto the calluses and recording the number of normally regenerated plant bodies 8 weeks later.

[3] = system: Peucedanum japonicum greening tissue masses; test: Effect of KODA on differentiation from callus (greening tissue masses) in Peucedanum japonicum; type: cell-based; conditions: 1 μM KODA immersion
Method: Peucedanum japonicum seeds from Yonaguni Island in Okinawa Prefecture were planted in artificial soil (Metro-Mix 360, Sun Grow Horticulture Canada Ltd.) and allowed to germinate under conditions of 20° C. and a 12-hour light-dark cycle. Two months later, the seedling plants were taken out, only the above ground portion was washed well with water, and after disinfecting with 70% alcohol (10 seconds) and a 10-fold dilution of sodium hypochlorite (7 minutes), the seedling plants were rinsed four times with pure water. The petiols were cut out and a cut measuring about 5 mm in length was aseptically made therein followed by planting in MS medium (Wako Pure Chemical Industries, solidified with 0.7% agar) containing 2,4-dichlorophenoxyacetic acid (0.022 mg/L) and kinetin (10.75 mg/L) solidified with 0.7% agar. The petiols were cultured for 2 months under conditions of 25° C. and a light-dark cycle of 12 hours to grow greening tissue masses containing incomplete leaf tissue. Two months later, the greening tissue masses were immersed in 1 μM KODA (KODA treatment group) or water (control group), and placed on MS medium (solidified with 0.7% agar) to which benzyladenine (BA) was added to a concentration of 2 ppm with indoleacetic acid (IAA) to a concentration of 0.1 ppm, 0.5 ppm or 1 ppm. As can be understood from the table, although a large number of differentiated greening plant bodies were obtained from greening tissue masses immersed in KODA, only a small number of differentiated plant bodies were obtained in the control group (water) in the case of 1.0 ppm indoleacetic acid+2.0 ppm benzyladenine.

tobacco callus = test: Effect of KODA on differentiation from tobacco callus; type: cell-based, Nicotiana tabacum; conditions: 100 μM KODA immersion
Method: After washing tobacco (Nicotiana tabacum) seeds with 70% ethanol, the surfaces of the seeds were sterilized for 3 minutes with 5% sodium hypochlorite and 0.05% Tween 20 followed by washing 5 times with sterilized water. After washing, the seeds were immersed in an aqueous KODA solution (100 μM) followed by planting the washed seeds on solid MS medium (Wako Pure Chemical Industries) containing 3% sucrose, 0.8% agar (Wako Pure Chemical Industries) and 2,4-dichlorophenoxyacetic acid (Kanto Chemical, 3 ppm) with kinetin (Nakarai Tesque, 0.1 ppm) and adjusted to pH 5.7 to induce calluses for 3 weeks under conditions of 25° C. and a light-dark cycle of 16 hours.
The above ground portions of the tobacco seedlings that underwent callus induction were removed, and only the root portions in which calluses were present were treated by immersing in 100 μM KODA (KODA treatment group) or water (control group) followed by inducing differentiation of the above ground portions under conditions of 25° C. and a light-dark cycle of 16 hours in solid differentiation medium obtained by adding 3% sucrose, 0.8% agar (Wako Pure Chemical Industries), […] (Nacalai Tesque, 0.2 ppm) and 6-benzyladenine (Nacalai Tesque, 2 ppm) to MS medium contained in plastic Petri dishes and adjusting to pH 5.7. Culturing in the differentiation medium was carried out by transferring to fresh differentiation medium after culturing for 2 weeks, namely for a total of 4 weeks. The resulting above ground portions were excised with a scalpel. The excised above ground portions were immersed in 100 μM aqueous KODA solution (KODA treatment group) or water (control group) followed by planting it in MS medium (100 mL) contained in culture bottles (CB-3, As One), which is prepared by adding sucrose (3%) to MS medium, and adjusting pH to 5.7, and is solidified with 0.8% agar, and then cultured for 4 weeks under conditions of 25° C. and light-dark cycle of 16 hours so as to differentiate below ground portions. […]

[4] = normal individuals, freeze-dried

`CC/C=C\C/C=C\CC(=O)C(O)CCCCCCCC(=O)O` (centres unmarked) [KODA, 9-hydroxy-10-oxo-12(Z),15(Z)-octadecadienoic acid] was tested, and the “No. of germinants per flask” value ([1]; 3 ppm KODA dropped 1 week after subculture) was 431, the “No. of germinants per flask” value ([1]; 3 ppm KODA dropped 2 weeks after subculture) was 702 and the “No. of germinants per flask” value ([1]; 3 ppm KODA dropped 3 weeks after subculture) was 578. The “Dehydrated adventitious embryo weight per flask” value ([1]; 3 ppm aqueous KODA dropped onto calluses 1 week after subculture) was 7.1 g, the “Dehydrated adventitious embryo weight per flask” value ([1]; 3 ppm aqueous KODA dropped onto calluses 2 weeks after subculture) was 7.2 g and the “Dehydrated adventitious embryo weight per flask” value ([1]; 3 ppm aqueous KODA dropped onto calluses 3 weeks after subculture) was 6.8 g. For the same compound, the “adventitious embryos recovered in comparison with control group (FIG. 1)” value ([1]; KODA treatment group, after two weeks) was “A large number of adventitious embryos were recovered”, the “number of redifferentiated (normally regenerated) plant bodies versus control (FIG. 4)” value [2] was “increase in comparison with a control group at each concentration” and the “No. of redifferentiated greening plant bodies” value ([3]; IAA (0.1 ppm) + BA (2.0 ppm)) was 29. The “No. of redifferentiated greening plant bodies” value ([3]; IAA (0.5 ppm) + BA (2.0 ppm)) was 20, the “No. of redifferentiated greening plant bodies” value ([3]; IAA (1.0 ppm) + BA (2.0 ppm)) was 27 and the “normal individuals among the redifferentiated individuals” value (tobacco callus; control group 30%) was 60%. For the same compound, the “dry weight of above ground portions versus control (FIG. 6)” value (tobacco callus; [4]) was “no significant difference at a level of significance of 5%” and the “dry weight of below ground portions versus control (FIG. 6)” value (tobacco callus; [4]) was “a significant difference was confirmed at a level of significance of 5%”.
